Reference: article PMC2551328 (Biochemistry, 2008)

Legend:
Assay type in all cases: biochemical
M.tb PGDH G316V = M.tb PGDH G316V (Mycobacterium tuberculosis, UniProt P9WNX3, G315V)
M.tb PGDH G317V = M.tb PGDH G317V (Mycobacterium tuberculosis, UniProt P9WNX3, G316V)
M.tb PGDH G318V = M.tb PGDH G318V (Mycobacterium tuberculosis, UniProt P9WNX3, G317V)
M.tb PGDH G316, 317V = M.tb PGDH G316, 317V (Mycobacterium tuberculosis, UniProt P9WNX3, G315V/G316V)
M.tb PGDH G317, 318V = M.tb PGDH G317, 318V (Mycobacterium tuberculosis, UniProt P9WNX3, G316V/G317V)
M.tb PGDH G316, 318V = M.tb PGDH G316, 318V (Mycobacterium tuberculosis, UniProt P9WNX3, G315V/G317V)
M.tb PGDH Y461A = M.tb PGDH Y461A (Mycobacterium tuberculosis, UniProt P9WNX3, Y460A)
M.tb PGDH D463A = M.tb PGDH D463A (Mycobacterium tuberculosis, UniProt P9WNX3, D462A)
M.tb PGDH N481A = M.tb PGDH N481A (Mycobacterium tuberculosis, UniProt P9WNX3, N480A)

## N[C@@H](CO)C(=O)O [L-serine, reference compound]
M.tb PGDH G316V
  Hill Coefficient: 1.6 ± 0.1
M.tb PGDH G317V
  Hill Coefficient: 1.5 ± 0.1
M.tb PGDH G318V
  Hill Coefficient: 2.5 ± 0.1
  decrease in sensitivity to serine: about 5 fold
M.tb PGDH G316, 317V
  Hill Coefficient: 1.7 ± 0.1
M.tb PGDH G317, 318V
  Hill Coefficient: 1.9 ± 0.1
M.tb PGDH G316, 318V
  Hill Coefficient: 1.9 ± 0.1
M.tb PGDH Y461A
  Hill Coefficient: 1.7 ± 0.1
M.tb PGDH D463A
  Hill Coefficient: 1.4 ± 0.1

## O=C(O)C(=O)COP(=O)(O)O [HPAP, hydroxypyruvic acid phosphate]
M.tb PGDH G316V
  Ki: 2230 ± 190 µM
  Km: 114 ± 4 µM
  kcat: 1111 ± 30 s⁻¹
M.tb PGDH G317V
  Ki: 1110 ± 148 µM
  Km: 165 ± 9 µM
  kcat: 2111 ± 119 s⁻¹
M.tb PGDH G318V
  Ki: 1920 ± 437 µM
  Km: 203 ± 23 µM
  kcat: 2349 ± 177 s⁻¹
M.tb PGDH G316, 317V
  Ki: 380 ± 45 µM
  Km: 610 ± 95 µM
  kcat: 2805 ± 310 s⁻¹
M.tb PGDH G317, 318V
  Ki: 1620 ± 402 µM
  Km: 220 ± 43 µM
  kcat: 605 ± 27 s⁻¹
M.tb PGDH G316, 318V
  Ki: 220 ± 35 µM
  Km: 470 ± 43 µM
  kcat: 2827 ± 197 s⁻¹
M.tb PGDH Y461A
  Ki: 420 ± 65 µM
  Km: 270 ± 60 µM
  kcat: 2754 ± 300 s⁻¹
M.tb PGDH D463A
  Ki: 1090 ± 165 µM
  Km: 140 ± 10 µM
  kcat: 720 ± 89 s⁻¹
M.tb PGDH N481A
  Ki: 2320 ± 337 µM
  Km: 120 ± 15 µM
  kcat: 603 ± 77 s⁻¹
